Source: PubChem BioAssay AID2060896 (Molecular Pharmacology Branch, DTP, NCI, 2025)

Tested on: 941728-121-R-J1-PDC complex spheroid viability
Assay: Anticancer human tumor 941728-121-R-J1-PDC patient-derived lung adenocarcinoma cell line growth inhibition [RAS]
Settings: for IC50: curve of first compound; for viability, T/C: stronger effect = lower value
Summary of the method: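 Multi-cell-type spheroids: tumor cells plus HUVEC endothelial cells and mesenchymal stem cells. RAS-pathway inhibitors were combined with targeted agents, each dosed in half-log steps down from clinical Cmax, or from 10 microM when Cmax was unknown.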

[1] = second compound 0.000949 µM, first compound 0.0316 µM
[2] = second compound 0.000949 µM, first compound 0.1 µM
[3] = second compound 0.000949 µM, first compound 0.316 µM
[4] = second compound 0.000949 µM, first compound 1 µM
[5] = second compound 0.000949 µM, first compound 3.16 µM
[6] = second compound 0.000949 µM, first compound 10 µM
[7] = second compound 0.003 µM, first compound 0.0316 µM
[8] = second compound 0.003 µM, first compound 0.1 µM
[9] = second compound 0.003 µM, first compound 0.316 µM
[10] = second compound 0.003 µM, first compound 1 µM
[11] = second compound 0.003 µM, first compound 3.16 µM
[12] = second compound 0.003 µM, first compound 10 µM
[13] = second compound 0.00949 µM, first compound 0.0316 µM
[14] = second compound 0.00949 µM, first compound 0.1 µM
[15] = second compound 0.00949 µM, first compound 0.316 µM
[16] = second compound 0.00949 µM, first compound 1 µM
[17] = second compound 0.00949 µM, first compound 3.16 µM
[18] = second compound 0.00949 µM, first compound 10 µM
[19] = second compound 0.03 µM, first compound 0.0316 µM
[20] = second compound 0.03 µM, first compound 0.1 µM
[21] = second compound 0.03 µM, first compound 0.316 µM
[22] = second compound 0.03 µM, first compound 1 µM
[23] = second compound 0.03 µM, first compound 3.16 µM
[24] = second compound 0.03 µM, first compound 10 µM
[25] = second compound 0.0949 µM, first compound 0.0316 µM
[26] = second compound 0.0949 µM, first compound 0.1 µM
[27] = second compound 0.0949 µM, first compound 0.316 µM
[28] = second compound 0.0949 µM, first compound 1 µM
[29] = second compound 0.0949 µM, first compound 3.16 µM
[30] = second compound 0.0949 µM, first compound 10 µM
[31] = second compound 0.3 µM, first compound 0.0316 µM
[32] = second compound 0.3 µM, first compound 0.1 µM
[33] = second compound 0.3 µM, first compound 0.316 µM
[34] = second compound 0.3 µM, first compound 1 µM
[35] = second compound 0.3 µM, first compound 3.16 µM
[36] = second compound 0.3 µM, first compound 10 µM
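Further: spheroids exposed to compounds for 7 days before readout.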
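Wherever viability, T/C is given: 100% = DMSO vehicle control viability.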

CC(C)NCC(C(=O)N1CCN(c2ncnc3c2C(C)CC3O)CC1)c1ccc(Cl)cc1 (stereo unspecified) + CCn1c(-c2cc(N3CCN(C)CC3)cnc2C(C)OC)c2c3cc(ccc31)-c1csc(n1)CC(NC(=O)C1CC1C)C(=O)N1CCCC(N1)C(=O)OCC(C)(C)C2
IC50 (second compound 0.000949 µM): < 0.0316 µM
IC50 (second compound 0.003 µM): < 0.0316 µM
IC50 (second compound 0.00949 µM): < 0.0316 µM
IC50 (second compound 0.03 µM): < 0.0316 µM
IC50 (second compound 0.0949 µM): < 0.0316 µM
IC50 (second compound 0.3 µM): < 0.0316 µM
viability, T/C [1]: 28.7%
viability, T/C [2]: 28.3%
viability, T/C [3]: 18.8%
viability, T/C [4]: 20.1%
viability, T/C [5]: 19%
viability, T/C [6]: 10.4%
viability, T/C [7]: 22.7%
viability, T/C [8]: 23.5%
viability, T/C [9]: 16.5%
viability, T/C [10]: 20.5%
viability, T/C [11]: 14.6%
viability, T/C [12]: 8.01%
viability, T/C [13]: 17.7%
viability, T/C [14]: 14.9%
viability, T/C [15]: 15.2%
viability, T/C [16]: 12.3%
viability, T/C [17]: 9.47%
viability, T/C [18]: 5.47%
viability, T/C [19]: 13.1%
viability, T/C [20]: 14%
viability, T/C [21]: 14.2%
viability, T/C [22]: 11.3%
viability, T/C [23]: 8.42%
viability, T/C [24]: 4.92%
viability, T/C [25]: 12.4%
viability, T/C [26]: 13.6%
viability, T/C [27]: 11.9%
viability, T/C [28]: 12.1%
viability, T/C [29]: 5.65%
viability, T/C [30]: 5.14%
viability, T/C [31]: 11.1%
viability, T/C [32]: 14.2%
viability, T/C [33]: 13.5%
viability, T/C [34]: 10%
viability, T/C [35]: 8.91%
viability, T/C [36]: 4.65%

CC(Nc1ccc2c(c1)OCCn1cc(N3C(=O)OCC3C(F)F)nc1-2)C(N)=O (stereo unspecified) + CCn1c(-c2cc(N3CCN(C)CC3)cnc2C(C)OC)c2c3cc(ccc31)-c1csc(n1)CC(NC(=O)C1CC1C)C(=O)N1CCCC(N1)C(=O)OCC(C)(C)C2
IC50 (second compound 0.000949 µM): < 0.0316 µM
IC50 (second compound 0.003 µM): < 0.0316 µM
IC50 (second compound 0.00949 µM): < 0.0316 µM
IC50 (second compound 0.03 µM): < 0.0316 µM
IC50 (second compound 0.0949 µM): < 0.0316 µM
IC50 (second compound 0.3 µM): < 0.0316 µM
viability, T/C [1]: 26%
viability, T/C [2]: 23.3%
viability, T/C [3]: 18.9%
viability, T/C [4]: 21.3%
viability, T/C [5]: 20.5%
viability, T/C [6]: 12.1%
viability, T/C [7]: 19.4%
viability, T/C [8]: 15.9%
viability, T/C [9]: 13.4%
viability, T/C [10]: 14.2%
viability, T/C [11]: 11.7%
viability, T/C [12]: 7.42%
viability, T/C [13]: 14.2%
viability, T/C [14]: 10.3%
viability, T/C [15]: 11.2%
viability, T/C [16]: 9.14%
viability, T/C [17]: 7.89%
viability, T/C [18]: 5.97%
viability, T/C [19]: 12.3%
viability, T/C [20]: 10.6%
viability, T/C [21]: 10.1%
viability, T/C [22]: 8.95%
viability, T/C [23]: 11.8%
viability, T/C [24]: 6.96%
viability, T/C [25]: 11.5%
viability, T/C [26]: 8.85%
viability, T/C [27]: 9.23%
viability, T/C [28]: 8.74%
viability, T/C [29]: 7.5%
viability, T/C [30]: 6.53%
viability, T/C [31]: 11.4%
viability, T/C [32]: 9.97%
viability, T/C [33]: 9.41%
viability, T/C [34]: 6.86%
viability, T/C [35]: 6.29%
viability, T/C [36]: 6.96%

O=C(c1ccc(F)c(F)c1Nc1ccc(I)cc1F)N1CC(O)([C@@H]2CCCCN2)C1 + CCn1c(-c2cc(N3CCN(C)CC3)cnc2C(C)OC)c2c3cc(ccc31)-c1csc(n1)CC(NC(=O)C1CC1C)C(=O)N1CCCC(N1)C(=O)OCC(C)(C)C2
IC50 (second compound 0.000949 µM): < 0.00316 µM
IC50 (second compound 0.003 µM): < 0.00316 µM
IC50 (second compound 0.00949 µM): < 0.00316 µM
IC50 (second compound 0.03 µM): < 0.00316 µM
IC50 (second compound 0.0949 µM): < 0.00316 µM
IC50 (second compound 0.3 µM): < 0.00316 µM
viability, T/C (second compound 0.000949 µM, first compound 0.00316 µM): 26%
viability, T/C (second compound 0.000949 µM, first compound 0.01 µM): 26.8%
viability, T/C [1]: 15.6%
viability, T/C [2]: 19.6%
viability, T/C [3]: 16.4%
viability, T/C [4]: 8.5%
viability, T/C (second compound 0.003 µM, first compound 0.00316 µM): 21.8%
viability, T/C (second compound 0.003 µM, first compound 0.01 µM): 17.2%
viability, T/C [7]: 15.4%
viability, T/C [8]: 14.5%
viability, T/C [9]: 12.3%
viability, T/C [10]: 13.5%
viability, T/C (second compound 0.00949 µM, first compound 0.00316 µM): 15.1%
viability, T/C (second compound 0.00949 µM, first compound 0.01 µM): 11%
viability, T/C [13]: 12.7%
viability, T/C [14]: 12.7%
viability, T/C [15]: 12%
viability, T/C [16]: 8.59%
viability, T/C (second compound 0.03 µM, first compound 0.00316 µM): 13.4%
viability, T/C (second compound 0.03 µM, first compound 0.01 µM): 12.9%
viability, T/C [19]: 12.2%
viability, T/C [20]: 12.7%
viability, T/C [21]: 8.4%
viability, T/C [22]: 10.3%
viability, T/C (second compound 0.0949 µM, first compound 0.00316 µM): 12.6%
viability, T/C (second compound 0.0949 µM, first compound 0.01 µM): 12.5%
viability, T/C [25]: 12.3%
viability, T/C [26]: 12.4%
viability, T/C [27]: 11%
viability, T/C [28]: 10.8%
viability, T/C (second compound 0.3 µM, first compound 0.00316 µM): 12%
viability, T/C (second compound 0.3 µM, first compound 0.01 µM): 11.5%
viability, T/C [31]: 12.7%
viability, T/C [32]: 11.5%
viability, T/C [33]: 8.36%
viability, T/C [34]: 9.92%
